Read-outs that look alike come from different tables or passages of the source.

The subject of test [1] is IGF-I receptor tyrosine kinase. As to conditions: cerebellar tissue, ethanol-exposed relative to control pups; normalized to receptor protein; not dose-dependent. The method, then:
(§1) Insulin or IGF-I receptor molecules were immunoprecipitated from individual 100 μg protein samples using rabbit polyclonal antibodies (1 μg/ml) and Protein A sepharose (Amersham-Pharmacia, Arlington Heights, Ill.) (Ausubel et al, (2002) Current Protocols in Molecular Biology. John Wiley & Sons New York). Receptor tyrosine kinase activity was measured in the immune precipitates using a non-isotopic assay (Chemicon International, Temecula, Calif.) according to the manufacturer's protocol with small modifications. Briefly, tyrosine phosphorylation of the biotinylated synthetic peptide substrate captured onto streptavidin-coated wells was detected with horseradish peroxidase conjugated anti-phospho-tyrosine and SuperSignal West Pico chemiluminescent substrate (Pierce Chemical Co., Rockford, Ill.). Luminescence was measured in a TopCount machine (Packard Instrument Co., Meriden, Conn.). […]
(§2) Studies were done to characterize the degree to which ethanol-associated impairments in receptor binding were associated with reductions in insulin and IGF-I receptor tyrosine kinase activities, and insulin and IGF-I receptor protein expression. Receptor protein levels were measured by Western blotting with digital image densitometry.

Test [2] relates to insulin receptor tyrosine kinase. To be noted: cerebellar tissue, ethanol-exposed relative to control pups; normalized to receptor protein; not dose-dependent. On the procedure:
as §1, §2

The subject of another test is IGF-I receptor. As to conditions: chronic ethanol feeding; temporal lobe, hypothalamus, and cerebellum. From the text: (§3) Male (˜200 g) Long Evans rats (Charles River Laboratories, Cambridge, Mass.) were fed isocaloric liquid diets (BioServ, Frenchtown, N.J.) in which ethanol comprised 0% or 37% of the caloric content (9.25% v/v) for 6 weeks (Yeon et al., Hepatology 38:703 (2003)). A chow fed control group was also studied. Rats were monitored daily to ensure equivalent food consumption and maintenance of body weight. Upon sacrifice, the brains were harvested and either immersion fixed in Histochoice fixative (Amresco Corp., Solon, Ohio) for paraffin embedding, or sliced fresh to micro-dissect temporal cortex, hypothalamus, and cerebellum. The fresh tissue blocks were snap frozen in a dry ice-methanol bath and stored at −80° C. for mRNA and protein studies.
(§4) Fresh frozen tissue (˜100 mg) was homogenized in 5 volumes of NP-40 lysis buffer (50 mM Tris-HCl, pH 7.5, 1% NP-40, 150 mM NaCl, 1 mM EDTA, 2 mM EGTA) containing protease inhibitors (1 mM PMSF, 0.1 mM TPCK, 1 μg/ml aprotinin, 1 μg/ml pepstatin A, 0.5 μg/ml leupeptin, 1 mM NaF, 1 mM Na4P2O7). Protein concentrations were determined using the bicinchoninic acid (BCA) assay (Pierce, Rockford, Ill.). Exploratory studies determined the amounts of protein and concentrations of radiolabeled ligand required to achieve 20% specific binding. Insulin receptor binding assays were performed using 100 μg protein. IGF-I binding assays required 25 μg protein per sample, and IGF-II receptor binding assays were optimized using 10 μg protein. Competitive equilibrium binding assays were used to assess growth factor binding in relation to ethanol exposure. For total binding, duplicate individual protein samples were incubated in 100 μl reactions containing binding buffer (100 mM HEPES, pH 8.0, 118 mM NaCl, 1.2 mM MgSO4, 8.8 mM dextrose, 5 mM KCl, 1% bovine serum albumin) and 100 nCi/ml of [^125I] (2000 Ci/mmol; […]) insulin, IGF-I, or IGF-II. To measure non-specific binding, replicate samples were identically prepared but with the addition of 0.1 μM unlabeled (cold) ligand.
(§5) All reactions were performed in 1.5 ml Eppendorff tubes, and the incubations were performed at 4° C. for 16 hours with gentle platform agitation. Bound radiolabeled tracer was then precipitated by adding 500 μl of 0.15% bovine gamma globulin (prepared in 100 mM Tris-HCl, pH 8.0) followed by 400 μl 37.5% polyethylene glycol 8000 (PEG-8000; prepared in 100 mM Tris-HCl, pH 8.0) to each tube. […] The samples were counted for 1 minute in an LKB CompuGamma CS Gamma counter. Specific binding was calculated by subtracting fmol of non-specific binding, i.e., amount bound in the presence of cold ligand, from the total fmol bound (absence of unlabeled competitive ligand). The results were analyzed and plotted using the GraphPad Prism 4 software (GraphPad Software, Inc., San Diego, Calif.). […]

A further test deals with IGF-II receptor. To be noted: chronic ethanol feeding.
Excerpt: as §3, §4, §5

Another test relates to insulin receptor. As to conditions: chronic ethanol feeding; temporal lobe, hypothalamus, and cerebellum.
Excerpt: as §3, §4, §5

Consider `CCO` [ethanol], for which the “IGF-I receptor tyrosine kinase activity” value in test [1] is “significantly reduced”. Further, the “insulin receptor tyrosine kinase activity” value in test [2] is “significantly reduced”. For the same compound, the IGF-I receptor binding entry in the test on IGF-I receptor is on record as “significantly reduced”. Also, the IGF-II receptor binding result is given as “significantly lower” with IGF-II receptor (cerebella, relative to control rats); “relatively preserved” with IGF-II receptor (temporal lobe and hypothalamus). Moreover, the insulin receptor binding entry in the test with insulin receptor was “significantly reduced”.

The values above are taken from patent US9308198B2, “Treatment, prevention, and reversal of alcohol-induced brain disease” (priority 2006, dated 2016).
